Measurements taken from PubChem BioAssay (NCI).
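Cultured in 96-well plates, cells were exposed to test compound for 48 hours across five concentrations. TGI is the concentration that stops growth completely.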

Columns and labels:
Experiment in all cases: growth of human tumour cells (NCI), 48 h
[1] = test system: 786-0 renal
[2] = test system: MCF7 breast
[3] = test system: RPMI-8226 leukemia
[4] = test system: TK-10 renal
[5] = test system: HS 578T breast
[6] = test system: UO-31 renal
[7] = test system: SK-OV-3 ovarian
[8] = test system: SN12C renal
[9] = test system: HCT-15 colon
[10] = test system: HCC-2998 colon
[11] = test system: SF-295 CNS
[12] = test system: HOP-62 NSCLC
[13] = test system: SK-MEL-5 melanoma
[14] = test system: CAKI-1 renal
[15] = test system: BT-549 breast
[16] = test system: NCI-H226 lung
[17] = test system: NCI-H23 lung
[18] = test system: HCT-116 colon
[19] = test system: OVCAR-8 ovarian
[20] = test system: SK-MEL-28 melanoma
[21] = test system: NCI/ADR-RES ovarian
[22] = test system: U251 CNS
[23] = test system: K-562 leukemia
[24] = test system: T-47D breast
[25] = test system: MDA-MB-231 breast
[26] = test system: SR leukemia
[27] = test system: NCI-H522 lung
[28] = test system: SW-620 colon
[29] = test system: UACC-257 melanoma
[30] = test system: M14 melanoma
[31] = test system: KM12 colon
[32] = test system: COLO 205 colon
[33] = test system: EKVX NSCLC
[34] = test system: SF-539 CNS
[35] = test system: OVCAR-4 ovarian
[36] = test system: OVCAR-3 ovarian
[37] = test system: A549 NSCLC
[38] = test system: RXF 393 renal
[39] = test system: PC-3 prostate
[40] = test system: SF-268 CNS
[41] = test system: MDA-MB-435
[42] = test system: HL-60(TB) leukemia
[43] = test system: CCRF-CEM leukemia
[44] = test system: IGROV1 ovarian
[45] = test system: SNB-19 CNS
[46] = test system: HT29 colon
[47] = test system: MDA-N
[48] = test system: SNB-75 CNS
[49] = test system: ACHN renal
[50] = test system: MOLT-4 leukemia
[51] = test system: UACC-62 melanoma
[52] = test system: DU-145 prostate
[53] = test system: NCI-H460 lung
[54] = test system: SK-MEL-2 melanoma
[55] = test system: OVCAR-5 ovarian
[56] = test system: MALME-3M melanoma
[57] = test system: LOX IMVI melanoma
[58] = test system: HOP-92 NSCLC

CN(C)c1ccc(/C=C2\Oc3ccccc3C2=O)cc1
TGI [1]: > 100 µM
TGI [2]: > 100 µM
TGI [3]: > 100 µM
TGI [4]: > 100 µM
TGI [5]: > 100 µM
TGI [6]: > 100 µM
TGI [7]: > 100 µM
TGI [8]: > 100 µM
TGI [9]: > 100 µM
TGI [10]: > 100 µM
TGI [11]: > 100 µM
TGI [12]: > 100 µM
TGI [13]: > 100 µM
TGI [14]: > 100 µM
TGI [15]: > 100 µM
TGI [16]: > 100 µM
TGI [17]: > 100 µM
TGI [18]: > 100 µM
TGI [19]: > 100 µM
TGI [20]: > 100 µM
TGI [21]: > 100 µM
TGI [22]: > 100 µM
TGI [23]: > 100 µM
TGI [24]: > 100 µM
TGI [25]: > 100 µM
TGI [26]: > 100 µM
TGI [27]: > 100 µM
TGI [28]: > 100 µM
TGI [29]: > 100 µM
TGI [30]: > 100 µM
TGI [31]: > 100 µM
TGI [32]: > 100 µM
TGI [33]: > 100 µM
TGI [34]: > 100 µM
TGI [35]: > 100 µM
TGI [36]: > 100 µM
TGI [37]: > 100 µM
TGI [38]: > 100 µM
TGI [39]: > 100 µM
TGI [40]: > 100 µM
TGI [41]: > 100 µM
TGI [42]: > 100 µM
TGI [43]: > 100 µM
TGI [44]: > 100 µM
TGI [45]: > 100 µM
TGI [46]: > 100 µM
TGI [47]: > 100 µM
TGI [48]: > 100 µM
TGI [49]: > 100 µM
TGI [50]: > 100 µM
TGI [51]: > 100 µM
TGI [52]: > 100 µM
TGI [53]: > 100 µM

CN(C(=O)CC(=O)CP(=O)(c1ccccc1)c1ccccc1)c1ccccc1
TGI [1]: > 100 µM
TGI [2]: > 100 µM
TGI [3]: > 100 µM
TGI [4]: > 100 µM
TGI [5]: > 100 µM
TGI [6]: > 100 µM
TGI [7]: > 100 µM
TGI [8]: > 100 µM
TGI [9]: > 100 µM
TGI [10]: > 100 µM
TGI [11]: > 100 µM
TGI [12]: > 100 µM
TGI [13]: > 100 µM
TGI [14]: > 100 µM
TGI [15]: > 100 µM
TGI [16]: > 100 µM
TGI [17]: > 100 µM
TGI [18]: > 100 µM
TGI [19]: > 100 µM
TGI [20]: > 100 µM
TGI [21]: > 100 µM
TGI [22]: > 100 µM
TGI [23]: > 100 µM
TGI [24]: > 100 µM
TGI [25]: > 100 µM
TGI [26]: > 100 µM
TGI [27]: > 100 µM
TGI [28]: > 100 µM
TGI [29]: > 100 µM
TGI [30]: > 100 µM
TGI [31]: > 100 µM
TGI [32]: > 100 µM
TGI [33]: > 100 µM
TGI [34]: > 100 µM
TGI [35]: > 100 µM
TGI [36]: > 100 µM
TGI [37]: > 100 µM
TGI [38]: > 100 µM
TGI [39]: > 100 µM
TGI [40]: > 100 µM
TGI [41]: > 100 µM
TGI [42]: > 100 µM
TGI [43]: > 100 µM
TGI [44]: > 100 µM
TGI [45]: > 100 µM
TGI [46]: > 100 µM
TGI [47]: > 100 µM
TGI [48]: > 100 µM
TGI [49]: > 100 µM
TGI [50]: > 100 µM
TGI [51]: > 100 µM
TGI [52]: > 100 µM
TGI [53]: > 100 µM

NC1CSc2ccccc2NC1=O (stereo not given)
TGI [1]: > 100 µM
TGI [2]: > 100 µM
TGI [3]: > 100 µM
TGI [4]: > 100 µM
TGI [5]: > 100 µM
TGI [6]: > 100 µM
TGI [7]: > 100 µM
TGI [8]: > 100 µM
TGI [9]: > 100 µM
TGI [10]: > 100 µM
TGI [11]: > 100 µM
TGI [12]: > 100 µM
TGI [13]: > 100 µM
TGI [14]: > 100 µM
TGI [15]: > 100 µM
TGI [16]: > 100 µM
TGI [17]: > 100 µM
TGI [18]: > 100 µM
TGI [19]: > 100 µM
TGI [20]: > 100 µM
TGI [21]: > 100 µM
TGI [22]: > 100 µM
TGI [23]: > 100 µM
TGI [24]: > 100 µM
TGI [25]: > 100 µM
TGI [26]: > 100 µM
TGI [27]: > 100 µM
TGI [28]: > 100 µM
TGI [29]: > 100 µM
TGI [30]: > 100 µM
TGI [31]: > 100 µM
TGI [32]: > 100 µM
TGI [54]: > 100 µM
TGI [33]: > 100 µM
TGI [34]: > 100 µM
TGI [55]: > 100 µM
TGI [35]: > 100 µM
TGI [36]: > 100 µM
TGI [37]: > 100 µM
TGI [38]: > 100 µM
TGI [56]: > 100 µM
TGI [39]: > 100 µM
TGI [40]: > 100 µM
TGI [41]: > 100 µM
TGI [42]: > 100 µM
TGI [43]: > 100 µM
TGI [44]: > 100 µM
TGI [45]: > 100 µM
TGI [46]: > 100 µM
TGI [47]: > 100 µM
TGI [48]: > 100 µM
TGI [49]: > 100 µM
TGI [50]: > 100 µM
TGI [51]: > 100 µM
TGI [52]: > 100 µM
TGI [53]: > 100 µM
TGI [57]: > 100 µM

COc1ccc(CCn2nccc2C)cc1
TGI [2]: > 100 µM
TGI [3]: > 100 µM
TGI [4]: > 100 µM
TGI [5]: > 100 µM
TGI [6]: > 100 µM
TGI [7]: > 100 µM
TGI [8]: > 100 µM
TGI [9]: > 100 µM
TGI [11]: > 100 µM
TGI [12]: > 100 µM
TGI [13]: > 100 µM
TGI [14]: > 100 µM
TGI [15]: > 100 µM
TGI [17]: > 100 µM
TGI [18]: > 100 µM
TGI [19]: > 100 µM
TGI [20]: > 100 µM
TGI [21]: > 100 µM
TGI [22]: > 100 µM
TGI [23]: > 100 µM
TGI [24]: > 100 µM
TGI [25]: > 100 µM
TGI [26]: > 100 µM
TGI [28]: > 100 µM
TGI [29]: > 100 µM
TGI [30]: > 100 µM
TGI [31]: > 100 µM
TGI [32]: > 100 µM
TGI [33]: > 100 µM
TGI [34]: > 100 µM
TGI [55]: > 100 µM
TGI [35]: > 100 µM
TGI [36]: > 100 µM
TGI [37]: > 100 µM
TGI [38]: > 100 µM
TGI [56]: > 100 µM
TGI [39]: > 100 µM
TGI [40]: > 100 µM
TGI [41]: > 100 µM
TGI [42]: > 100 µM
TGI [43]: > 100 µM
TGI [44]: > 100 µM
TGI [45]: > 100 µM
TGI [46]: > 100 µM
TGI [47]: > 100 µM
TGI [48]: > 100 µM
TGI [49]: > 100 µM
TGI [50]: > 100 µM
TGI [51]: > 100 µM
TGI [52]: > 100 µM
TGI [53]: > 100 µM
TGI [57]: > 100 µM

O=C(OCCN1CCCCCC1)C(c1ccsc1)C1CCCCC1 (stereo not given)
TGI [1]: 31.8 µM
TGI [2]: 33 µM
TGI [3]: 32.1 µM
TGI [4]: 33.5 µM
TGI [5]: 37.8 µM
TGI [6]: 26.9 µM
TGI [7]: 31.8 µM
TGI [8]: 32.8 µM
TGI [9]: 30.8 µM
TGI [58]: 31.2 µM
TGI [10]: 31.5 µM
TGI [11]: 32.4 µM
TGI [12]: 29.9 µM
TGI [14]: 29.4 µM
TGI [15]: 29.6 µM
TGI [17]: 39 µM
TGI [18]: 29.6 µM
TGI [19]: 34.5 µM
TGI [20]: 36.2 µM
TGI [21]: 31.4 µM
TGI [22]: 32.1 µM
TGI [24]: 17.8 µM
TGI [25]: 31.8 µM
TGI [26]: 57.2 µM
TGI [28]: 33.4 µM
TGI [29]: 34.5 µM
TGI [30]: 32.8 µM
TGI [31]: 32.1 µM
TGI [32]: 22.7 µM
TGI [33]: 35.7 µM
TGI [34]: 30.8 µM
TGI [55]: 32.5 µM
TGI [36]: 28.8 µM
TGI [37]: 44.5 µM
TGI [56]: 28.2 µM
TGI [39]: 44.9 µM
TGI [40]: 36.8 µM
TGI [41]: 32.3 µM
TGI [42]: 70.6 µM
TGI [43]: 40.2 µM
TGI [44]: 24.2 µM
TGI [45]: 40.4 µM
TGI [46]: 31.6 µM
TGI [47]: 28.4 µM
TGI [48]: 32.2 µM
TGI [49]: 33.1 µM
TGI [50]: 50.6 µM
TGI [52]: 33.2 µM
TGI [53]: 33 µM
TGI [57]: 32.2 µM
